Experimental findings from patent US20110182850A1, “ORGANIC COMPOUNDS AND THEIR USES” (priority 2009, published 2011) are described below.

Broadly, the pIC50 is the IC50 on a negative log10 scale, so that one unit is a factor of ten. A high value points to a small IC50.

pIC50: −log10 of the molar value.

The target in this assay is T1, HCV NS3-4A serine protease (full-length NS3-4A protein, genotype 1a, strain HCV-1) (Hepatitis C virus genotype 1a, UniProt P26664).
T1 construct: using the full-length NS3-4A protein (genotype 1a, strain HCV-1)
T1 sequence (P26664 1658-1711): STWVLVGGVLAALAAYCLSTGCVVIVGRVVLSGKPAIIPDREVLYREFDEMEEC
T1 sequence (P26664 1027-1657): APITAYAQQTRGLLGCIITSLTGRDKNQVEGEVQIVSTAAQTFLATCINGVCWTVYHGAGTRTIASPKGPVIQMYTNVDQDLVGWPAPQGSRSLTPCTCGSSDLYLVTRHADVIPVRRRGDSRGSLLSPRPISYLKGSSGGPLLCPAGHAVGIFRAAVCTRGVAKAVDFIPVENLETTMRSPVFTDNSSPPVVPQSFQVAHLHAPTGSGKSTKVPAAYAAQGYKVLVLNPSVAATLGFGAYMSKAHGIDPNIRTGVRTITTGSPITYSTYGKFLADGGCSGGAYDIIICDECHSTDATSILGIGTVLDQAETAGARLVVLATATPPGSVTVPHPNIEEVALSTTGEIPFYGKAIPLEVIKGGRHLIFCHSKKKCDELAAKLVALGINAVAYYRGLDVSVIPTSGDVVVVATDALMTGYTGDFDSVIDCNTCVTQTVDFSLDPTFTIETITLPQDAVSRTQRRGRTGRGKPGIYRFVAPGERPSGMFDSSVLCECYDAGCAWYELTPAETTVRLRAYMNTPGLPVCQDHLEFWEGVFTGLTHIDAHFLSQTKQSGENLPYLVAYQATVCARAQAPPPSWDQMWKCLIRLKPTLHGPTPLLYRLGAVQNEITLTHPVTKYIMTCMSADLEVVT
The experiment in a line: HCV NS3-4A protease assay. It counts as biochemical. Particulars: Protease IC50. As to the method: The inhibitory activity of certain compounds of Table A against HCV NS3-4A serine protease is determined in a homogenous assay using the full-length NS3-4A protein (genotype 1a, strain HCV-1) and a commercially available internally-quenched fluorogenic peptide substrate as described by Taliani, M., et al. 1996 Anal. Biochem. 240:60-67, which is incorporated by reference in its entirety.
`CC(C)N1CCCC[C@H]1C(=O)N[C@H](C(=O)N[C@H](C(=O)N1C[C@]2(C[C@H]1C(=O)NC1(C(=O)NS(=O)(=O)C3CC3)CCCC1)C(C)(C)C21CCC1)C(C)(C)C)C1CCCCC1` [Compound 84, (5R,8S)-7-[(2S)-2-{[(2S)-2-cyclohexyl-2-({[(2S)-1-isopropylpiperidin-2-yl]carbonyl}amino)acetyl]amino}-3,3-dimethylbutanoyl]-N-{1-[(cyclopropylsulfonyl)carba-moyl]cyclopentyl}-10,10-dimethyl-7-azadispiro[3.0.4.1]decane-8-carboxamide]: the pIC50 is 7.00.

`C=CCC(C)(NC(=O)[C@@H]1C[C@@]2(CN1C(=O)[C@@H](NC(=O)[C@@H](NC(=O)[C@@H]1CCCCN1C(C)C)C(C)(C)C)C(C)(C)C)C(C)(C)C21CCC1)C(=O)NS(=O)(=O)C1CC1` (stereo partly drawn) [Compound 85, (5R,8S)-N-{1-[(cyclopropylsulfonyl)carba-moyl]-1-methylbut-3-en-1-yl}-7-[(2S)-2-{[(2S)-2-({[(2S)-1-isopropylpiperidin-2-yl]carbonyl}amino)-3,3-dimethylbutanoyl]amino}-3,3-dimethylbutanoyl]-10,10-dimethyl-7-azadispiro[3.0.4.1]decane-8-carboxamide] gave a pIC50 of 5.12.

Consider `C=CCC(C)(NC(=O)[C@@H]1C[C@@]2(CN1C(=O)[C@@H](NC(=O)[C@@H](NC(=O)[C@@H]1CCCCN1C(C)C)C(C)(C)C)C(C)(C)C)C(C)(C)C21CCC1)C(=O)NS(=O)(=O)C1CC1` (stereo partly drawn) [Compound 86, (5R,8S)-N-{1-[(cyclopropylsulfonyl)carba-moyl]-1-methylbut-3-en-1-yl}-7-[(2S)-2-{[(2S)-2-({[(2S)-1-isopropylpiperidin-2-yl]carbonyl}amino)-3,3-dimethylbutanoyl]amino}-3,3-dimethylbutanoyl]-10,10-dimethyl-7-azadispiro[3.0.4.1]decane-8-carboxamide], for which the pIC50 was 5.39.

With `C=C[C@@H]1C[C@]1(NC(=O)[C@@H]1C[C@@]2(CN1C(=O)C(NC(=O)[C@@H](NC(=O)c1cnccn1)C1CCCCC1)C(C)(C)C)C(C)(C)C21CCC1)C(=O)NS(=O)(=O)C1CC1` (stereo partly drawn) [Compound 87, (5R,8S)-7-[2-({(2S)-2-cyclohexyl-2-[(pyrazin-2-ylcarbonyl)amino]acetyl}amino)-3,3-dimethylbutanoyl]-N-{(1R,2S)-1-[(cyclopropylsulfonyl)carba-moyl]-2-vinylcyclopropyl}-10,10-dimethyl-7-azadispiro[3.0.4.1]decane-8-carboxamide], the pIC50 was 8.60.

Compound `C=C[C@@H]1C[C@]1(NC(=O)[C@@H]1C[C@@]2(CN1C(=O)[C@@H](NC(=O)[C@@H](NC(=O)c1cnccn1)C1CCCCC1)C(C)(C)C)C(C)(C)C21CCC1)C(=O)NS(=O)(=O)C1CC1` [Compound 88, (5R,8S)-7-[(2S)-2-({(2S)-2-cyclohexyl-2-[(pyrazin-2-ylcarbonyl)amino]acetyl}amino)-3,3-dimethylbutanoyl]-N-{(1R,2S)-1-[(cyclopropylsulfonyl)carba-moyl]-2-vinylcyclopropyl}-10,10-dimethyl-7-azadispiro[3.0.4.1]decane-8-carboxamide] showed a pIC50 of 9.10.

As for `C=C[C@@H]1C[C@]1(NC(=O)[C@@H]1C[C@@]2(CN1C(=O)[C@@H](NC(=O)[C@@H](NC(=O)C(C)(C)N1CCCC1)C1CCCCC1)C(C)(C)C)C(C)(C)C21CCC1)C(=O)NS(=O)(=O)C1CC1` [Compound 89, (5R,8S)-7-[(2S)-2-({(2S)-2-cyclohexyl-2-[(2-methyl-2-pyrrolidin-1-ylpropanoyl)amino]acetyl}amino)-3,3-dimethylbutanoyl]-N-{(1R,2S)-1-[(cyclopropylsulfonyl)carba-moyl]-2-vinylcyclopropyl}-10,10-dimethyl-7-azadispiro[3.0.4.1]decane-8-carboxamide], the pIC50 is 9.10.

Turning to `C=C[C@@H]1C[C@]1(NC(=O)[C@@H]1C[C@@]2(CN1C(=O)[C@@H](NC(=O)[C@@H](NC(=O)[C@@H]1CCCN(CC)C1)C1CCCCC1)C(C)(C)C)C(C)(C)C21CCC1)C(=O)NS(=O)(=O)C1CC1` [Compound 90, (5R,8S)-7-[(2S)-2-{[(2S)-2-cyclohexyl-2-({[(3R)-1-ethylpiperidin-3-yl]carbonyl}amino)acetyl]amino}-3,3-dimethylbutanoyl]-N-{(1R,2S)-1-[(cyclopropylsulfonyl)carba-moyl]-2-vinylcyclopropyl}-10,10-dimethyl-7-azadispiro[3.0.4.1]decane-8-carboxamide], the pIC50 is 9.15.

With `CC[C@@H]1C[C@]1(NC(=O)[C@@H]1C[C@@]2(CN1C(=O)[C@@H](NC(=O)[C@@H](NC(=O)[C@@H]1CCCCN1C(C)C)C(C)(C)C)C(C)(C)C)C(C)(C)C21CCC1)C(=O)NS(=O)(=O)C1CC1` [Compound 91, (5R,8S)-N-{(1R,2R)-1-[(cyclopropylsulfonyl)carba-moyl]-2-ethylcyclopropyl}-7-[(2S)-2-{[(2S)-2-({[(2S)-1-isopropylpiperidin-2-yl]carbonyl}amino)-3,3-dimethylbutanoyl]amino}-3,3-dimethylbutanoyl]-10,10-dimethyl-7-azadispiro[3.0.4.1]decane-8-carboxamide], the pIC50 was 8.46.

Consider `C=C[C@@H]1C[C@]1(NC(=O)[C@@H]1C[C@@]2(CN1C(=O)[C@@H](NC(=O)[C@@H](NC(=O)[C@@H]1CCCCN1C(C)C)C1CCCCC1)C(C)(C)C)C(C)(C)C21CCC1)C(=O)NS(=O)(=O)C1CC1` [Compound 92, (5R,8S)-7-[(2S)-2-{[(2S)-2-cyclohexyl-2-({[(2S)-1-isopropylpiperidin-2-yl]carbonyl}amino)acetyl]amino}-3,3-dimethylbutanoyl]-N-{(1R,2S)-1-[(cyclopropylsulfonyl)carba-moyl]-2-vinylcyclopropyl}-10,10-dimethyl-7-azadispiro[3.0.4.1]decane-8-carboxamide], for which the pIC50 was 9.40.

In turn, `C=C[C@@H]1C[C@]1(NC(=O)[C@@H]1C[C@@]2(CN1C(=O)[C@@H](NC(=O)[C@@H](NC(=O)C1CCCCN1C(C)C)C(C)(C)C)C(C)(C)C)C(C)(C)C21CCC1)C(=O)NS(=O)(=O)C(C)(C)C` (stereo partly drawn) [Compound 93, (5R,8S)-N-{(1R,2S)-1-[(tert-butylsulfonyl)carbamoyl]-2-vinylcyclopropyl}-7-[(2S)-2-{[(2S)-2-{[(1-isopropylpiperidin-2-yl)carbonyl]amino}-3,3-dimethylbutanoyl]amino}-3,3-dimethylbutanoyl]-10,10-dimethyl-7-azadispiro[3.0.4.1]decane-8-carboxamide] gave a pIC50 of 8.10.

Consider `C=C[C@@H]1C[C@]1(NC(=O)[C@@H]1C[C@@]2(CN1C(=O)[C@@H](NC(=O)[C@@H](NC(=O)C1CCCCN1C(C)C)C(C)(C)C)C(C)(C)C)C(C)(C)C21CCC1)C(=O)NS(C)(=O)=O` (stereo partly drawn) [Compound 94, (5R,8S)-7-[(2S)-2-{[(2S)-2-{[(1-isopropylpiperidin-2-yl)carbonyl]amino}-3,3-dimethylbutanoyl]amino}-3,3-dimethylbutanoyl]-10,10-dimethyl-N-{(1R,2S)-1-[(methylsulfonyl)carbamoyl]-2-vinylcyclopropyl}-7-azadispiro[3.0.4.1]decane-8-carboxamide], for which the pIC50 is 8.00.

`C=C[C@@H]1C[C@]1(NC(=O)[C@@H]1C[C@@]2(CN1C(=O)[C@@H](NC(=O)[C@@H](NC(=O)c1cccnc1)C1CCCCC1)C(C)(C)C)C(C)(C)C21CCC1)C(=O)NS(=O)(=O)C1CC1` [Compound 95, (5R,8S)-7-[(2S)-2-({(2S)-2-cyclohexyl-2-[(pyridin-3-ylcarbonyl)amino]acetyl}amino)-3,3-dimethylbutanoyl]-N-{(1R,2S)-1-[(cyclopropylsulfonyl)carba-moyl]-2-vinylcyclopropyl}-10,10-dimethyl-7-azadispiro[3.0.4.1]decane-8-carboxamide] showed a negative logarithm of the IC50 (pIC50) of 9.05.

Regarding `C=C[C@@H]1C[C@]1(NC(=O)[C@@H]1C[C@@]2(CN1C(=O)[C@@H](NC(=O)[C@@H](NC(=O)c1ccncc1)C1CCCCC1)C(C)(C)C)C(C)(C)C21CCC1)C(=O)NS(=O)(=O)C1CC1` [Compound 96, (5R,8S)-7-[(2S)-2-{[(2S)-2-cyclohexyl-2-(isonicotinoylamino)acetyl]amino}-3,3-dimethylbutanoyl]-N-{(1R,2S)-1-[(cyclopropylsulfonyl)carba-moyl]-2-vinylcyclopropyl}-10,10-dimethyl-7-azadispiro[3.0.4.1]decane-8-carboxamide], the pIC50 was 9.00.

In the case of `C=C[C@@H]1C[C@]1(NC(=O)[C@@H]1C[C@@]2(CN1C(=O)[C@@H](NC(=O)[C@@H](NC(=O)c1ccccn1)C1CCCCC1)C(C)(C)C)C(C)(C)C21CCC1)C(=O)NS(=O)(=O)C1CC1` [Compound 97, (5R,8S)-7-[(2S)-2-({(2S)-2-cyclohexyl-2-[(pyridin-2-ylcarbonyl)amino]acetyl}amino)-3,3-dimethylbutanoyl]-N-{(1R,2S)-1-[(cyclopropylsulfonyl)carba-moyl]-2-vinylcyclopropyl}-10,10-dimethyl-7-azadispiro[3.0.4.1]decane-8-carboxamide], the pIC50 was 9.00.

On to `C=C[C@@H]1C[C@]1(NC(=O)[C@@H]1C[C@@]2(CN1C(=O)[C@@H](NC(=O)[C@@H](NC(=O)c1ccccc1)C1CCCCC1)C(C)(C)C)C(C)(C)C21CCC1)C(=O)NS(=O)(=O)C1CC1` [Compound 98, (5R,8S)-7-[(2S)-2-{[(2S)-2-(benzoylamino)-2-cyclohexylacetyl]amino}-3,3-dimethylbutanoyl]-N-{(1R,2S)-1-[(cyclopropylsulfonyl)carba-moyl]-2-vinylcyclopropyl}-10,10-dimethyl-7-azadispiro[3.0.4.1]decane-8-carboxamide], for which the pIC50 was 8.82.

For the compound `C=C[C@@H]1C[C@]1(NC(=O)[C@@H]1C[C@@]2(CN1C(=O)[C@@H](NC(=O)[C@@H](NC(C)=O)C1CCCCC1)C(C)(C)C)C(C)(C)C21CCC1)C(=O)NS(=O)(=O)C1CC1` [Compound 99, (5R,8S)-7-[(2S)-2-{[(2S)-2-acetamido-2-cyclohexylacetyl]amino}-3,3-dimethylbutanoyl]-N-{(1R,2S)-1-[(cyclopropylsulfonyl)carba-moyl]-2-vinylcyclopropyl}-10,10-dimethyl-7-azadispiro[3.0.4.1]decane-8-carboxamide], the pIC50 was 8.22.
